target: T1, human LPAR1 (Homo sapiens, UniProt Q92633); assay: LPAR1 intracellular calcium mobilization assay (antagonist mode, CHO-K1 EDG2 cells, FLIPR); format: cell-based; conditions: antagonist activity; CHO-K1 EDG2 cells expressing human LPAR1; 60 min pre-incubation at 37° C., then LPA 18:2 at EC80 concentration (100 nM); test compound 0.5 nM to 10 μM; read-out: LPAR1 (EC50; nM)
T1 construct: host or cells: CHO-K1
Protocol: In vitro LPAR1 activity was measured in an intracellular calcium mobilization assay.
CHO-K1 EDG2 cells (DiscoverX cat #93-0644C2) expressing human LPAR1 (NM_001401.3) were seeded in a total volume of 25 μL of Dulbecco's Modification of Eagle's Medium (DMEM) with 10% Fetal Bovine Serum, 1× PenStrepGlutamine, 300 μg/ml Hygromycin, and 800 μg/ml G418 into 384-well tissue culture plate (Grenier #781091) at 15,000 cells/well and incubated at 37° C. overnight. Prior to testing, 25 μL Calcium Loading Dye Component A (FLIPR Calcium 6 Assay Kit Molecular Device #R8190) and 2.5 mM Probenecid (Invitrogen #P36400, prepared fresh) in Hank's Balanced Salt Solution (Corning #21-023-CV), 20 mM HEPES (Corning #25-060-CI), 0.1% Bovine Serum Albumin (Sigma-Aldrich #A7906-500G) was add to the cells for 60 minutes at 37° C.
Agonist dose curves of LPA 18:2 (Avanti Polar Lipids cat #857138, 0.5 nM to 10 μM) were recorded to determine the LPA 18:2 EC80 for subsequent antagonist assays. For agonist dose curves, cells were removed from the incubator 2 hours after dye loading and transferred to the FLIPR Tetra instrument (Molecular Devices, San Jose, CA). Calcium mobilization was monitored for […] and 10 μL 6× LPA in HBSS/20 mM Hepes/0.1% bovine serum albumin (BSA) was added to the cells 5 seconds into the assay.
To determine the LPAR1 antagonist activity of test compounds, cells were pre-incubated with test compound at a dose range of 0.5 nM to 10 μM, followed by LPA at EC80 concentration (100 nM). After dye loading, cells were removed from the incubator and 0.3 μL of 200X antagonist was added. Cells were incubated for 60 minutes at 37° C. Antagonist activity was measured on a FLIPR Tetra. Calcium mobilization was monitored for 3.5 minutes and 10 μL 6X EC80 LPA in HBSS, 20 mM HEPES, and 0.1% BSA was added to the cells 5 seconds into the assay. Signal amplitude (Maximum minus minimum) values were plotted against log10 of antagonist concentration using Dose Response Tool (Gilead Sciences Inc.) to determine EC50.
The compound numbers correspond to the compound numbers in Examples 1 to13.

T1 sequence (Q92633 whole entry): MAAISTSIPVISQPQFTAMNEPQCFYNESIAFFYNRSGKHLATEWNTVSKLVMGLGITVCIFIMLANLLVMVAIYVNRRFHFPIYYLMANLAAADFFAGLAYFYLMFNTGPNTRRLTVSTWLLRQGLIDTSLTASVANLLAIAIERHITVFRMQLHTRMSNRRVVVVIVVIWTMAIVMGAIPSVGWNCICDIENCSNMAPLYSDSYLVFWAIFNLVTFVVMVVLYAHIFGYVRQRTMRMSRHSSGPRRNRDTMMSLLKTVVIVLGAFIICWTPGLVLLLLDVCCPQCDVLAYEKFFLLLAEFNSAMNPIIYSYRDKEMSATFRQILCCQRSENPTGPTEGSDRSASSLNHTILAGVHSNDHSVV

| IC50 [nM] | SMILES |
| --- | --- |
| 345 | C[C@@H](OC(=O)Nc1c(-c2ccc(NC(=O)C(F)(F)F)cn2)nnn1C)c1cccc(F)c1 [Compound 1, (R)-1-(3-fluorophenyl)ethyl (1-methyl-4-(5-(2,2,2-trifluoroacetamido)pyridin-2-yl)-1H-1,2,3-triazol-5-yl)carbamate] |
| 37000 | CC(=O)Nc1ccc(-c2nnn(C)c2NC(=O)O[C@H](CF)c2cccc(F)c2)nc1C [Compound 2, (S)-2-fluoro-1-(3-fluorophenyl)ethyl (4-(5-acetamido-6-methylpyridin-2-yl)-1-methyl-1H-1,2,3-triazol-5-yl)carbamate] |
| 2770 | C[C@@H](OC(=O)Nc1c(-c2ccc(NC(=O)C3(O)CC3)cn2)nnn1C)c1cccnc1Cl [Compound 3, (R)-1-(2-chloropyridin-3-yl)ethyl (4-(5-(1-hydroxycyclopropane-1-carboxamido)pyridin-2-yl)-1-methyl-1H-1,2,3-triazol-5-yl)carbamate] |
| 1260 | COC1(C(=O)Nc2ccc(-c3nnn(C)c3NC(=O)O[C@H](C)c3cccnc3Cl)nc2)CC1 [Compound 4, (R)-1-(2-chloropyridin-3-yl)ethyl (4-(5-(1-methoxycyclopropane-1-carboxamido)pyridin-2-yl)-1-methyl-1H-1,2,3-triazol-5-yl)carbamate] |
| 186 | C[C@@H](OC(=O)Nc1c(-c2ccc(NC(=O)C3(C#N)CC3)c(Cl)n2)nnn1C)c1cc(F)cnc1F [Compound 5, (R)-1-(2,5-difluoropyridin-3-yl)ethyl (4-(6-chloro-5-(1-cyanocyclopropane-1-carboxamido)pyridin-2-yl)-1-methyl-1H-1,2,3-triazol-5-yl)carbamate] |
| 176 | C[C@@H](OC(=O)Nc1c(-c2ccc(NC(=O)c3ccc(C4CC4)nc3)cn2)nnn1C)c1cc(F)cnc1F [Compound 6, (R)-1-(2,5-difluoropyridin-3-yl)ethyl (4-(5-(6-cyclopropylnicotinamido)pyridin-2-yl)-1-methyl-1H-1,2,3-triazol-5-yl)carbamate] |
| 261 | Cc1nc(-c2nnn(C)c2NC(=O)O[C@H](C)c2cc(F)cnc2F)ccc1NC(=O)c1cnc(C2CC2)o1 [Compound 7, (R)-1-(2,5-difluoropyridin-3-yl)ethyl (4-(5-(2-cyclopropyloxazole-5-carboxamido)-6-methylpyridin-2-yl)-1-methyl-1H-1,2,3-triazol-5-yl)carbamate] |
| 22 | C[C@@H](OC(=O)Nc1c(-c2ccc(NC(=O)c3cnc(-c4cccc(Cl)c4)nc3)cn2)nnn1C)c1cc(F)cnc1F [Compound 8, (R)-1-(2,5-difluoropyridin-3-yl)ethyl (4-(5-(2-(3-chlorophenyl)pyrimidine-5-carboxamido)pyridin-2-yl)-1-methyl-1H-1,2,3-triazol-5-yl)carbamate] |
| 34 | Cc1nc(-c2nnn(C)c2NC(=O)O[C@H](C)c2cc(F)cnc2F)ccc1NC(=O)C1(CN)CC(F)(F)C1 [Compound 9, (R)-1-(2,5-difluoropyridin-3-yl)ethyl (4-(5-(1-(aminomethyl)-3,3-difluorocyclobutane-1-carboxamido)-6-methylpyridin-2-yl)-1-methyl-1H-1,2,3-triazol-5-yl)carbamate] |
| 13 | C[C@@H](OC(=O)Nc1c(-c2ccc(NC(=O)C34CC(c5ccccc5)(C3)C4)cn2)nnn1C)c1cc(F)cnc1F [Compound 10, (R)-1-(2,5-difluoropyridin-3-yl)ethyl (1-methyl-4-(5-(3-phenylbicyclo[1.1.1]pentane-1-carboxamido)pvidin-2-yl)-1H-1,2,3-triazol-5-yl)carbamate] |
| 365 | C[C@@H](OC(=O)Nc1c(-c2ccc(NC(=O)c3ccc(C45CC(C4)C5)cc3)cn2)nnn1C)c1cc(F)cnc1F [Compound 11, (R)-1-(2,5-difluoropyridin-3-yl)ethyl (4-(5-(4-(bicyclo[1.1.1]pentan-1-yl)benzamido)pyridin-2-14)-1-methyl-1H-1,2,3-triazol-5-yl)carbamate] |
| 2050 | CC(=O)Nc1ccc(-c2nnn(C)c2NC(=O)O[C@H](C)c2cc(F)cnc2F)nc1 [Compound 12, (R)-1-(2,5-difluoropyridin-3-yl)ethyl (4-(5-acetamidopyridin-2-yl)-1-methyl-1H-1,2,3-triazol-5-yl)carbamate] |
| 152 | C[C@@H](OC(=O)Nc1c(-c2ccc(NC(=O)C34CC(OS(C)(=O)=O)(C3)C4)cn2)nnn1C)c1cccnc1Cl [Compound 13, (R)-3-((6-(5-(((1-(2-chloropyridin-3-yl)ethoxy)carbonyl)amino)-1-methyl-1H-1,2,3-triazol-4-yl)pyridin-3-yl)carbamoyl)bicyclo[1.1.1]pentan-1-yl methanesulfonate] |
